Experimental data reported in patent publication US12459894B2, “Orally active melanocortin receptor-4 compounds” (Palatin Technologies, Inc., priority 2018, dated 2025).
Marks after values point to notes of the source that are not given here.

Tests used:
[1] = target: T1, hMC3r (Homo sapiens, UniProt P41968); experiment: cAMP assay, human recombinant CHO cells, NDP-α-MSH reference; type: cell-based; settings: vs NDP-α-MSH
T1 construct: expressed in transfected cells; host or cells: CHO
Protocol: (§1) Melanocortin receptor binding and function of Compound 7.1 was tested. Ki binding values (nM) were calculated utilizing the percent inhibit of the binding of iodine-125 labeled NDP-α-MSH against B16-F1 cells for mMC1r, and human recombinant CHO cells for hMC3r, hMC4r and hMC5r, with the inhibition constant calculated using the Cheng Prusoff equation. Functional results (EC50 and efficacy) were calculated utilizing cAMP assays with NDP-α-MSH for mMC1r, hMC3r and hMC4r, ACTH for hMC2r, and α-MSH for hMC5r for agonist measures, with the same target cells for melanocortin receptors mMC1r, hMC3r, hMC4r and hMC5r, and human recombinant Cloudman M3 cells for hMC2r.

[2] = system: MC4r (−/−) mice; experiment: Oral administration in MC4r knockout mice; type: in vivo, mouse; settings: 30 mg/kg twice daily oral gavage
Protocol: (§2) Feed intake and body weight was evaluated in MCr4 knockout (MC4r −/−) mice (Jackson Laboratories) compared to C57BI/6 DIO mice. […] Feed weights were taken at time 0, 2, 6 and 24 hours post lights out. […] The change in body weight is shown in FIG. 4 starting on study day 5, the first day of administraton of compound 7.1. […] Additionally, there was a statistically significant mean difference, 2.8%, 95% Cl (1.281, 4.253), and p value<0.0001 between DIO mice receiving compound 7.1 and MC4r (−/−) receiving compound 7.1.

[3] = system: male mice homogygous for the obese spontaneous mutation, Lep^ob; experiment: Oral administration in leptin-deficient obese mice; type: in vivo, mouse; settings: 30 mg/kg twice daily for six consecutive days
Protocol: Male mice homogygous for the obese spontaneous mutation, Lep^ob, with resulting leptin protein deficiency, were individually housed with free access to feed and drinking water. All animals were sham-dosed twice daily for five days prior to initial drug administration, utilizing a vehicle dose of 3.2% mannitol and […] tris(hydroxymethyl)aminomethane at pH 7.4. On day 6 a cohort of the mice received compound 7.1 dissolved into the vehicle twice daily for six consecutive days at a dose of 30 mg/kg. Body weight of animals was measured daily, with data analyzed as the percent change from baseline of each individual animal, where baseline was defined as the average weight during the first three days of sham dosing. The averaged percent change from baseline of a vehicle group was then subtracted from each value to correct for continued weight gain or other study-wide factors. The change in body weight is shown in FIG. 3 starting on study day […], the first day of administration of compound 7.1.

[4] = Plasma concentrations following oral administration; type: in vivo, Sprague-Dawley rats; settings: Sprague-Dawley, rat, oral 30 mg/kg
Protocol: Plasma samples were measured at 15 minutes (2 animals) and 30 minutes, 1 hour, 2 hours, 4 hours, 8 hours and 24 hours (3 animals) post oral administration.

[5] = target: T2, mMC1r (Mus musculus, UniProt Q01727); experiment: cAMP assay, B16-F1 cells, NDP-α-MSH reference; type: cell-based; settings: vs NDP-α-MSH
T2 construct: endogenous in cells; host or cells: B16-F1 mouse melanoma cells
T2 sequence (Q01727 whole entry): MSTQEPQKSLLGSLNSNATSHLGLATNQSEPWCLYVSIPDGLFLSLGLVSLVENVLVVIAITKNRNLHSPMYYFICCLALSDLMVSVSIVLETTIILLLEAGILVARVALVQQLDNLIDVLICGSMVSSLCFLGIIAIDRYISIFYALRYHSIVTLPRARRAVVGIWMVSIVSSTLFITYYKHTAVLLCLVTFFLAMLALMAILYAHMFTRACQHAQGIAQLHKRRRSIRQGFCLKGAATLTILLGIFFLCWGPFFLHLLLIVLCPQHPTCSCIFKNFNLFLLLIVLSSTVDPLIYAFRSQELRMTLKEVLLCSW
Protocol: as §1

[6] = target: T3, hMC2r (Homo sapiens, UniProt Q01718); experiment: cAMP assay, human recombinant Cloudman M3 cells, ACTH reference; type: cell-based; settings: vs ACTH
T3 construct: expressed in transfected cells; host or cells: Cloudman M3 cells
T3 sequence (Q01718 whole entry): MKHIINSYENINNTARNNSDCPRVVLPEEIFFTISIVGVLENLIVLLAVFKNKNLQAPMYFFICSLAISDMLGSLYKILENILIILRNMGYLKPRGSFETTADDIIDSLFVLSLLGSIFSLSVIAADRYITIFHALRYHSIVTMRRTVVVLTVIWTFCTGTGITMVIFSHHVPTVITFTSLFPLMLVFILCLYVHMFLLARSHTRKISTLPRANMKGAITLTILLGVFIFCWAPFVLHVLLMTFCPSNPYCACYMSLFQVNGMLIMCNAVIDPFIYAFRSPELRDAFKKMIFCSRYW
T3 sequence (Q9D159 whole entry partner): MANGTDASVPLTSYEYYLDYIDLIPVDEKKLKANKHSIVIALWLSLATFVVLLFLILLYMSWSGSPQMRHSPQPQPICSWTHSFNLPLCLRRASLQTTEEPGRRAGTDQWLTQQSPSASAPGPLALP
Protocol: as §1

[7] = target: MC4r (Homo sapiens, UniProt P32245); experiment: cAMP assay, human recombinant CHO cells, NDP-α-MSH reference; type: cell-based; parameters: expressed in transfected cells; host or cells: CHO; settings: vs NDP-α-MSH
MC4r, sequence (P32245 whole entry): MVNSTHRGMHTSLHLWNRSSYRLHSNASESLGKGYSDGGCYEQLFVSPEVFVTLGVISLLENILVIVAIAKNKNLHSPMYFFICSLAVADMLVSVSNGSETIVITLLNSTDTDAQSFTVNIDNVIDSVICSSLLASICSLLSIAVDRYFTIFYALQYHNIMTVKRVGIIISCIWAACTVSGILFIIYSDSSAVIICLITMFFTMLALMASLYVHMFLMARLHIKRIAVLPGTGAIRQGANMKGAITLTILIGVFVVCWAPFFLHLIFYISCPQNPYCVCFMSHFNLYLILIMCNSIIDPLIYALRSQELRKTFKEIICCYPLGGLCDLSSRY
Protocol: as §1

[8] = target: T4, hMC5r (Homo sapiens, UniProt P33032); experiment: cAMP assay, human recombinant CHO cells, α-MSH reference; type: cell-based; settings: vs α-MSH
T4 construct: expressed in transfected cells; host or cells: CHO
T4 sequence (P33032 whole entry): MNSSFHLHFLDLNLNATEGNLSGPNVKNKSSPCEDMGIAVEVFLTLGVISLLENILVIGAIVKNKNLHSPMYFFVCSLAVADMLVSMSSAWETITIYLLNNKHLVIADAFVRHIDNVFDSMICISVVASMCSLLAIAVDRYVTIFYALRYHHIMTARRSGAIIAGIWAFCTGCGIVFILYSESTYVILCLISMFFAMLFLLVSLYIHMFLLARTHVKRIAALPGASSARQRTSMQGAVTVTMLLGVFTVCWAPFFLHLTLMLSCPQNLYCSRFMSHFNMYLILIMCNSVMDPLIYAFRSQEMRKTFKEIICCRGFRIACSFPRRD
Protocol: as §1

[9] = system: C57BL/6 male DIO mice; experiment: Body weight and food intake in vivo study in diet induced obese (DIO) mice; parameters: species or system mouse
Protocol: Compound 7.1 was assessed in a body weight and food intake in vivo study in diet induced obese (DIO) mice. C57BL/6 male DIO mice were utilized, that were 17 weeks of age on arrival. Animals were pre-conditioned on a high-fat diet for 11 weeks by Jackson Labs. […] Animals were single housed within a limited access rodent facility, and provided ad libitum with a commercial rodent diet and free access to drinking water. Animals were randomized into five groups, a vehicle group, three dose levels of compound 7.1 (3 mg/kg, 10 mg/kg and 30 mg/kg), and Peptide A, a positive control cyclic peptide of the formula Ac-Arg-cyclo(Om-Asn-D-Phe-Arg-Trp-Glu)-NH2. Following three days of sham dosing, animals were dosed for three days, with vehicle or Compound 7.1 dosed orally once daily at within one hour of lights out in the AM, and Peptide A dosed by subcutaneous injection twice daily within one hour before lights out and six hours after lights out. Body weights were measured one hour prior to lights out, and feed weights were measured both one hour prior to lights out and six hours post lights out.
• *p<0.05 vs. sham (vehicle control) using two-way ANOVA followed by Dunnett's post-test. • **p<0.01 vs sham (vehicle control) using two-way ANOVA followed by Dunnett's post-test.

[10] = system: C57BI/6 DIO mice; experiment: Oral administration in DIO mice (comparison to MC4r knockout mice); type: in vivo, mouse
Protocol: as §2

T1 sequence (P41968 whole entry): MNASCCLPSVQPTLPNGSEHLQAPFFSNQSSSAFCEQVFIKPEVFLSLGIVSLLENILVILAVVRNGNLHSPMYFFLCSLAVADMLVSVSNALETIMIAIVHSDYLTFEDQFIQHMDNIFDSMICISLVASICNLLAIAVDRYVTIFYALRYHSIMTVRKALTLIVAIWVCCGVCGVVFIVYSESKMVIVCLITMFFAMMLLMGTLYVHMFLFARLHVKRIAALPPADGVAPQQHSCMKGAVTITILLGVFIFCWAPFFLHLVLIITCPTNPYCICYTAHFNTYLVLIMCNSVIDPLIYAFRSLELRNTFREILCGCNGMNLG

## CC(=O)N1CCC(N(CC(C)C)N2CCN(C(=O)[C@@H](Cc3ccc(Cl)cc3)NC(=O)C(C)(C)N)CC2)CC1 [Compound 7.1, N-[(1R)-2-[4-[(1-acetyl-4-piperidyl)-isobutyl-amino]piperazin-1-yl]-1-[(4-chlorophenyl)methyl]-2-oxo-ethyl]-2-amino-2-methyl-propanamide]
[1]
  cAMP Efficacy: 28%
[2]
  food consumption vs vehicle only: no differences in food consumption
[3]
  decrease in body weight compared to vehicle controls: 4.8%
[4]
  Tmax: 2 h
[5]
  cAMP Efficacy: 72%
[6]
  cAMP Efficacy: 22%
[7]
  cAMP Efficacy: 91%
[8]
  cAMP Efficacy: 20%
[9]; 3 mg/kg orally once daily, Day 0
  Body Weight Change (%) Mean: 0%
[9]; 3 mg/kg orally once daily, Day 0, 24 hours post lights out
  Food Intake - 24 Hours (g) Mean: 1.90 g
[9]; 3 mg/kg orally once daily, Day 1
  Body Weight Change (%) Mean: −1.97%
[9]; 3 mg/kg orally once daily, Day 1, 24 hours post lights out
  Food Intake - 24 Hours (g) Mean: 2.03 g
[9]; 3 mg/kg orally once daily, Day 2
  Body Weight Change (%) Mean: −2.92%
[9]; 3 mg/kg orally once daily, Day 2, 24 hours post lights out
  Food Intake - 24 Hours (g) Mean: 2.11 g
[9]; 3 mg/kg orally once daily, Day 3
  Body Weight Change (%) Mean: −3.80* %
[9]; 3 mg/kg, day 3
  body weight: body weight loss on day 3
[9]; 10 mg/kg orally once daily, Day 0
  Body Weight Change (%) Mean: 0%
[9]; 10 mg/kg orally once daily, Day 0, 24 hours post lights out
  Food Intake - 24 Hours (g) Mean: 1.82 g
[9]; 10 mg/kg orally once daily, Day 1
  Body Weight Change (%) Mean: −2.48* %
[9]; 10 mg/kg orally once daily, Day 1, 24 hours post lights out
  Food Intake - 24 Hours (g) Mean: 1.78 g
[9]; 10 mg/kg orally once daily, Day 2
  Body Weight Change (%) Mean: −3.77** %
[9]; 10 mg/kg orally once daily, Day 2, 24 hours post lights out
  Food Intake - 24 Hours (g) Mean: 2.20 g
[9]; 10 mg/kg orally once daily, Day 3
  Body Weight Change (%) Mean: −4.35** %
[9]; 30 mg/kg orally once daily, Day 0
  Body Weight Change (%) Mean: 0%
[9]; 30 mg/kg orally once daily, Day 0, 24 hours post lights out
  Food Intake - 24 Hours (g) Mean: 1.62* g
[9]; 30 mg/kg orally once daily, Day 1
  Body Weight Change (%) Mean: −4.41** %
[9]; 30 mg/kg orally once daily, Day 1, 24 hours post lights out
  Food Intake - 24 Hours (g) Mean: 1.60* g
[9]; 30 mg/kg orally once daily, Day 2
  Body Weight Change (%) Mean: −5.82** %
[9]; 30 mg/kg orally once daily, Day 2, 24 hours post lights out
  Food Intake - 24 Hours (g) Mean: 1.91* g
[9]; 30 mg/kg orally once daily, Day 3
  Body Weight Change (%) Mean: −7.08** %
[9]; 30 mg/kg, 24 hours post lights out, entirety of the study, vs sham
  feed intake: significantly inhibited feed intake
[9]; daily 10 mg/kg and 30 mg/kg, day 1 to 3
  body weight: significant body weight loss
[10]; 30 mg/kg twice daily oral gavage, DIO mice, 6 and 24 hour timepoints
  food consumption vs vehicle only: significantly decreased
[10]; 30 mg/kg twice daily oral, p value<0.0001
  mean difference in body weight change between DIO mice and MC4r (−/−) mice receiving compound: 2.8%
[10]; 30 mg/kg two daily administrations via oral gavage, DIO mice
  body weight vs own vehicle group: significant body weight loss
[10]; DIO mice, 30 mg/kg twice daily oral
  mean percentage body weight change difference between treated group and vehicle: 4.9%
